Experimental data reported in the supplement of paper PMC11061612.

What was measured:
RVH-421 (Melanoma) [1] = assay: Bliss excess, mean over the matrix (fraction); higher = more synergy
Method in brief: (§1)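 Bliss excess equals the observed combination effect minus the expected value EA + EB − EA·EB, where EA and EB are the effects of each agent alone. Combination Emax is the second-highest inhibition within the matrix. Inhibition was scaled from CellTiter-Glo 2.0 luminescence, with 0 set by vehicle wells and 1 by blank wells, after 72 hours of two-drug dosing of cells plated in 1536-well plates.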

[2] = system: ATN-1 (T-Lymphoblastic Leukemia); assay: combination Emax (second highest fraction inhibited in the dose matrix, 72 h); higher = more inhibition; extreme values may be limits of the assay
Method in brief: as §1

[3] = system: BC-1 (B-Cell Non-Hodgkin's Lymphoma); assay: as above
Method in brief: as §1

C32 (Melanoma) = assay: as above
Method in brief: as §1

[4] = system: CAL-85-1 (Breast Carcinoma); assay: as above
Method in brief: as §1

DK-MG (Glioblastoma) = assay: as above
Method in brief: as §1

[5] = system: Daudi (Burkitt's Lymphoma); assay: as above
Method in brief: as §1

HT-144 (Melanoma) = assay: as above
Method in brief: as §1

[6] = system: JJN-3 (Plasma Cell Myeloma); assay: as above
Method in brief: as §1

MG-63 (Osteosarcoma) = assay: as above
Method in brief: as §1

[7] = system: NCI-H1048 (Small Cell Lung Carcinoma); assay: as above
Method in brief: as §1

[8] = system: NCI-H1648 (Lung Adenocarcinoma); assay: as above
Method in brief: as §1

[9] = system: NCI-H1944 (Lung Adenocarcinoma); assay: as above
Method in brief: as §1

RVH-421 (Melanoma) [10] = assay: as above
Method in brief: as §1

[11] = system: SBC-3 (Small Cell Lung Carcinoma); assay: as above
Method in brief: as §1

SK-MEL-24 (Melanoma) = assay: as above
Method in brief: as §1

[12] = system: SW1463 (Colorectal Carcinoma); assay: as above
Method in brief: as §1

[13] = system: TK (B-Cell Non-Hodgkin's Lymphoma); assay: as above
Method in brief: as §1

Row | Compound | Bliss excess (RVH-421 (Melanoma) [1]) | combination Emax [2] | combination Emax [3] | combination Emax (C32 (Melanoma)) | combination Emax [4] | combination Emax (DK-MG (Glioblastoma)) | combination Emax [5] | combination Emax (HT-144 (Melanoma)) | combination Emax [6] | combination Emax (MG-63 (Osteosarcoma)) | combination Emax [7] | combination Emax [8] | combination Emax [9] | combination Emax (RVH-421 (Melanoma) [10]) | combination Emax [11] | combination Emax (SK-MEL-24 (Melanoma)) | combination Emax [12] | combination Emax [13]
1 | COc1cccc(OCCCN)c1-c1cc(Nc2cnc(C#N)cn2)n[nH]1 [Prexasertib] + C=CCn1c(=O)c2cnc(Nc3ccc(N4CCN(C)CC4)cc3)nc2n1-c1cccc(C(C)(C)O)n1 [AZD1775] (first compound max 1 µM, partner max 1 µM) | -0.0524 | 1 | 1 | 0.721 | 0.716 | 0.387 | 0.968 | 0.838 | 0.985 | 0.972 | 0.955 | 0.83 | 0.815 | 0.341 | 0.923 | 0.703 | 0.795 | 0.882
2 | CN(C)CCCOc1ccc(-c2ccc3ncc4c(c3c2)n(C2CCOCC2)c(=O)n4C)cn1 [AZD0156] + C[C@@H]1COCCN1C2=NC(=NC(=C2)C3(CC3)[S@](=N)(=O)C)C4=C5C=CNC5=NC=C4 [AZD6738] (first compound max 1 µM, 7x7, partner max 10 µM) | -0.0581 | 1 | 0.936 | 0.666 | 0.446 | 0.242 | 0.848 | 0.721 | 0.938 | 0.706 | 0.468 | 0.676 | 0.868 | 0.18 | 0.798 | 0.457 | 0.558 | 0.907
3 | Cc1c2c(nn1C)CSCc1cc(n(C)n1)CSc1cc(c3ccccc3c1)OCCCc1c(C(=O)O)n(C)c3c-2c(Cl)ccc13 [AZD5991] + C1CN(CCC1(C(=O)N[C@@H](CCO)C2=CC=C(C=C2)Cl)N)C3=NC=NC4=C3C=CN4 [Capivasertib] (first compound max 1 µM, 7x7, partner max 3 µM) | -0.0513 | 0.989 | 1 | 0.266 | 0.145 | 0.86 | 0.348 | 1 | 1 | 0.228 | 1 | 0.906 | 0.344 | 0.411 | 0.334 | 0.439 | 0.216 | 0.17
4 | CN(CCO)CC[C@H](CSc1ccccc1)Nc1ccc(S(=O)(=O)NC(=O)c2ccc(N3CCC([C@@H](O)c4ccccc4-c4ccc(Cl)cc4)CC3)cc2)cc1S(=O)(=O)C(F)(F)F [AZD4320] + C=CCn1c(=O)c2cnc(Nc3ccc(N4CCN(C)CC4)cc3)nc2n1-c1cccc(C(C)(C)O)n1 [AZD1775] (first compound max 1 µM, partner max 1 µM) | 0.0274 | 0.982 | 0.999 | 0.639 | 0.439 | 0.283 | 0.336 | 0.654 | 0.662 | 0.266 | 1 | 0.707 | 0.813 | 0.442 | 0.69 | 0.582 | 0.468 | 1
5 | CN(CCO)CC[C@H](CSc1ccccc1)Nc1ccc(S(=O)(=O)NC(=O)c2ccc(N3CCC([C@@H](O)c4ccccc4-c4ccc(Cl)cc4)CC3)cc2)cc1S(=O)(=O)C(F)(F)F [AZD4320] + Cn1cnc2c(F)c(Nc3ccc(Br)cc3Cl)c(C(=O)NOCCO)cc21 [Selumetinib] (first compound max 1 µM, 7x7, partner max 3 µM) | 0.106 | 0.732 | 0.443 | 0.975 | 0.683 | 0.336 | 0.65 | 0.834 | 0.731 | 0.365 | 0.992 | 0.83 | 0.702 | 0.643 | 0.981 | 0.761 | 0.534 | 0.987
6 | CC1(C)CCC(CN2CCN(c3ccc(C(=O)NS(=O)(=O)c4ccc(NCC5CCOCC5)c([N+](=O)[O-])c4)c(Oc4cnc5[nH]ccc5c4)c3)CC2)=C(c2ccc(Cl)cc2)C1 [Venetoclax] + C1CN(CCC1(C(=O)N[C@@H](CCO)C2=CC=C(C=C2)Cl)N)C3=NC=NC4=C3C=CN4 [Capivasertib] (first compound max 1 µM, 7x7, partner max 3 µM) | -0.0471 | 0.646 | 0.523 | 0.356 | 0.161 | 0.301 | 0.205 | 0.383 | 0.305 | 0.317 | 0.679 | 0.45 | 0.249 | 0.351 | 0.543 | 0.361 | 0.11 | 0.996
7 | Cc1c2c(nn1C)CSCc1cc(n(C)n1)CSc1cc(c3ccccc3c1)OCCCc1c(C(=O)O)n(C)c3c-2c(Cl)ccc13 [AZD5991] + C[C@@H](Nc1cc(F)cc(F)c1)c1cc(C(=O)N(C)C)cc2c(=O)cc(N3CCOCC3)oc12 [AZD8186] (first compound max 1 µM, 7x7, partner max 3 µM) | -0.0204 | 0.945 | 1 | 0.251 | 0.243 | 0.849 | 0.427 | 0.901 | 1 | 0.357 | 0.965 | 0.844 | 0.282 | 0.517 | 0.376 | 0.388 | 0.188 | 0.112
8 | Cc1c2c(nn1C)CSCc1cc(n(C)n1)CSc1cc(c3ccccc3c1)OCCCc1c(C(=O)O)n(C)c3c-2c(Cl)ccc13 [AZD5991] + CCN(CCO)CCCOc1ccc2c(Nc3cc(CC(=O)Nc4cccc(F)c4)[nH]n3)ncnc2c1 [AZD2811] (first compound max 1 µM, 7x7, partner max 1 µM) | -0.0055 | 0.976 | 1 | 0.445 | 0.267 | 0.839 | 0.806 | 0.927 | 1 | 0.232 | 1 | 0.748 | 0.35 | 0.214 | 0.531 | 0.362 | 0.268 | 0.289
9 | Cc1c2c(nn1C)CSCc1cc(n(C)n1)CSc1cc(c3ccccc3c1)OCCCc1c(C(=O)O)n(C)c3c-2c(Cl)ccc13 [AZD5991] + CN(C)CCCOc1ccc(-c2ccc3ncc4c(c3c2)n(C2CCOCC2)c(=O)n4C)cn1 [AZD0156] (first compound max 1 µM, 7x7, partner max 1 µM) | 0.0113 | 0.929 | 1 | 0.24 | 0.206 | 0.754 | 0.288 | 0.87 | 1 | 0.251 | 0.984 | 0.701 | 0.259 | 0.284 | 0.292 | 0.232 | 0.204 | 0.313
10 | COc1cccc(OCCCN)c1-c1cc(Nc2cnc(C#N)cn2)n[nH]1 [Prexasertib] + O=C(c1cc(Cc2n[nH]c(=O)c3ccccc23)ccc1F)N1CCN(C(=O)C2CC2)CC1 [Olaparib] (first compound max 1 µM, 7x7, partner max 10 µM) | -0.0491 | 1 | 0.986 | 0.769 | 0.548 | 0.224 | 0.945 | 0.712 | 0.978 | 0.822 | 0.894 | 0.802 | 0.613 | 0.3 | 0.744 | 0.607 | 0.601 | 0.891
11 | Cc1c2c(nn1C)CSCc1cc(n(C)n1)CSc1cc(c3ccccc3c1)OCCCc1c(C(=O)O)n(C)c3c-2c(Cl)ccc13 [AZD5991] + C=CCn1c(=O)c2cnc(Nc3ccc(N4CCN(C)CC4)cc3)nc2n1-c1cccc(C(C)(C)O)n1 [AZD1775] (first compound max 1 µM, partner max 1 µM) | 0.0088 | 1 | 1 | 0.568 | 0.43 | 0.821 | 0.706 | 0.969 | 1 | 0.395 | 1 | 0.796 | 0.737 | 0.248 | 0.602 | 0.478 | 0.471 | 0.927
12 | CCN(CCO)CCCOc1ccc2c(Nc3cc(CC(=O)Nc4cccc(F)c4)[nH]n3)ncnc2c1 [AZD2811] + C=CCn1c(=O)c2cnc(Nc3ccc(N4CCN(C)CC4)cc3)nc2n1-c1cccc(C(C)(C)O)n1 [AZD1775] (first compound max 1 µM, partner max 1 µM) | -0.0694 | 1 | 0.989 | 0.359 | 0.297 | 0.285 | 0.786 | 0.634 | 0.694 | 0.393 | 0.859 | 0.439 | 0.471 | 0.0949 | 0.539 | 0.414 | 0.48 | 0.901
13 | CC1(C)CCC(CN2CCN(c3ccc(C(=O)NS(=O)(=O)c4ccc(NCC5CCOCC5)c([N+](=O)[O-])c4)c(Oc4cnc5[nH]ccc5c4)c3)CC2)=C(c2ccc(Cl)cc2)C1 [Venetoclax] + C[C@@H](Nc1cc(F)cc(F)c1)c1cc(C(=O)N(C)C)cc2c(=O)cc(N3CCOCC3)oc12 [AZD8186] (first compound max 1 µM, 7x7, partner max 3 µM) | -0.0084 | 0.616 | 0.264 | 0.26 | 0.146 | 0.372 | 0.271 | 0.159 | 0.232 | 0.143 | 0.504 | 0.454 | 0.184 | 0.326 | 0.507 | 0.321 | 0.152 | 1
